Nc1cccc2ccncc12
solubility (mole fraction)
Details | in DMF | in acetone | in acetonitrile | in ethanol | in ethylene glycol | in isopropanol | in methanol | in n-propanol | in propylene glycol | in water
278.15 K | 0.00564 | 0.00309 | 0.00458 | 0.00135 | 0.000113 | 0.00283 | 0.000354 | 0.00359 | 0.000176 | 3.46e-05
283.15 K | 0.00693 | 0.00371 | 0.00539 | 0.00161 | 0.000132 | 0.00344 | 0.000411 | 0.0042 | 0.000211 | 4e-05
288.15 K | 0.00832 | 0.00439 | 0.00651 | 0.00191 | 0.000156 | 0.00401 | 0.000483 | 0.00497 | 0.000254 | 4.6e-05
293.15 K | 0.01 | 0.00532 | 0.00789 | 0.0022 | 0.000183 | 0.00477 | 0.000559 | 0.00593 | 0.000304 | 5.45e-05
298.15 K | 0.0119 | 0.00636 | 0.00939 | 0.00261 | 0.00022 | 0.00566 | 0.000664 | 0.007 | 0.000366 | 6.21e-05
303.15 K | 0.0141 | 0.00752 | 0.0111 | 0.00308 | 0.000261 | 0.00664 | 0.000773 | 0.00831 | 0.000433 | 7.2e-05
308.15 K | 0.0167 | 0.00896 | 0.0131 | 0.00365 | 0.000313 | 0.00784 | 0.000919 | 0.00984 | 0.000516 | 8.42e-05
313.15 K | 0.0196 | 0.0105 | 0.0156 | 0.0043 | 0.000367 | 0.00934 | 0.00107 | 0.0115 | 0.000608 | 9.8e-05
318.15 K | 0.023 | 0.0122 | 0.0182 | 0.00508 | 0.000429 | 0.0109 | 0.00128 | 0.0135 | 0.000718 | 0.000113
323.15 K | 0.0267 | 0.0143 | 0.0219 | 0.00602 | 0.000505 | 0.0128 | 0.00151 | 0.0158 | 0.00085 | 0.000132
